Drawing on patent publication US10590078B2, “Sodium channel blockers” (Daewoong Pharmaceutical Co., Ltd., priority 2015, dated 2020), this text covers IC50 for 33 compounds.

In this test the target is human sodium ion channel 1.7 (hNav1.7) (Homo sapiens, UniProt Q15858). Briefly: Blocking effect against sodium ion channel Nav1.7, IonFlux16 auto patch clamp in hNav1.7 HEK293 cells. The test is classed as cell-based. Particulars: hNav1.7 HEK293 cells; inhibition of peak current after 50 seconds treatment; eight concentrations; read-out: IC50. (In general: Patch clamp records ionic current or voltage across a cell membrane.)

Some results are limits rather than exact numbers.

Sequence of human sodium ion channel 1.7 (hNav1.7) (Q15858 whole entry): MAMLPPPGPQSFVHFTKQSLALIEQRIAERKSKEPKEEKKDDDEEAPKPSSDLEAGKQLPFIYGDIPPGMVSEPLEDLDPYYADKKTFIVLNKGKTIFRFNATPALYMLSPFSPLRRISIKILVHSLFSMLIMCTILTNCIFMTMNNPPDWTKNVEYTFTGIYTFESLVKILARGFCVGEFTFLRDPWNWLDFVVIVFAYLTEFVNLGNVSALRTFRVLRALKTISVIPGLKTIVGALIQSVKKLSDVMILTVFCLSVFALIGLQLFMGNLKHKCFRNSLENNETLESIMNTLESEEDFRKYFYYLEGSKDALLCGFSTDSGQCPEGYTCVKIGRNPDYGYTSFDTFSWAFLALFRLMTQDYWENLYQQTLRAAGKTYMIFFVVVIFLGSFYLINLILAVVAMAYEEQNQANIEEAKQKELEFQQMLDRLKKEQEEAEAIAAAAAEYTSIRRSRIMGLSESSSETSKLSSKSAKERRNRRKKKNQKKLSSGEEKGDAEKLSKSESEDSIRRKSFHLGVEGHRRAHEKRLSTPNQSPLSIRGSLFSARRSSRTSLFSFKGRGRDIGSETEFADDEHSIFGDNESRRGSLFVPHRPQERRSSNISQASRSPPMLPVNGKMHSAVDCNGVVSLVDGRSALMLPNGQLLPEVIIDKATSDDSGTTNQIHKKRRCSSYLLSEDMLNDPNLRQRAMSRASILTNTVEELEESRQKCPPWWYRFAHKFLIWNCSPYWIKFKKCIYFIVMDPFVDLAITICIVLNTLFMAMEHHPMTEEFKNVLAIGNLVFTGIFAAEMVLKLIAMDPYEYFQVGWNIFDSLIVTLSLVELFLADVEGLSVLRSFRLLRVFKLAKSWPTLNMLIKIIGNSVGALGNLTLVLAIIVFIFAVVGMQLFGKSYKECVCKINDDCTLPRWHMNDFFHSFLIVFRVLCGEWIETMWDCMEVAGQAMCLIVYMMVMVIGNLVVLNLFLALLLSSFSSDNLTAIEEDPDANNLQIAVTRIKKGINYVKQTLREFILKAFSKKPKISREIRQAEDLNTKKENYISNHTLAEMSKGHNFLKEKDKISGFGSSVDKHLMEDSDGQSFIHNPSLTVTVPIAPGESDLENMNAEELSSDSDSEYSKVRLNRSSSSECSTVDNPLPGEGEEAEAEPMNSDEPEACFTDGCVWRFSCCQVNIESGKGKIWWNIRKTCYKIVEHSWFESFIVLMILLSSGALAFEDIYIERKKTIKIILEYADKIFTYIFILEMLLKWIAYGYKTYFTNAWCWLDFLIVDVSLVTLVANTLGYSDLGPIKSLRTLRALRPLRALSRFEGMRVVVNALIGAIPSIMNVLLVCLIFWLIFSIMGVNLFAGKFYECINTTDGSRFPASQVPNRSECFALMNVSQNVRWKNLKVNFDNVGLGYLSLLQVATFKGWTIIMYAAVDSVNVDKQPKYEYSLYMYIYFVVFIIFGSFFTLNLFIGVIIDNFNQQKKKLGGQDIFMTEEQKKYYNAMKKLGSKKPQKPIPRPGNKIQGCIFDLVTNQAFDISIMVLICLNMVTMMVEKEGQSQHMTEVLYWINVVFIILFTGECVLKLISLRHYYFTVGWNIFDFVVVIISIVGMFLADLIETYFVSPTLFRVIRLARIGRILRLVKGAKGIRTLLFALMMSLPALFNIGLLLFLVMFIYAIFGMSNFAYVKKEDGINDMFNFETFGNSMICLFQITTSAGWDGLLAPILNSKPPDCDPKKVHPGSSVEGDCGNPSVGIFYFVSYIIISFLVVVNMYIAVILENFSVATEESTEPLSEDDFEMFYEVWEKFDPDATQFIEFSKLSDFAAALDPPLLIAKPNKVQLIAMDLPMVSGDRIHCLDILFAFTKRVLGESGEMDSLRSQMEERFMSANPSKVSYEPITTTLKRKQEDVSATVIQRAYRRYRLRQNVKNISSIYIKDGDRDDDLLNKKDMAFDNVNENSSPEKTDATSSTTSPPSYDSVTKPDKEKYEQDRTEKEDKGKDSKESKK

In general, IC50 refers to the concentration at which inhibition is half-maximal. `COc1ccc(-c2nn(-c3cc(Cl)c(C(=O)NS(C)(=O)=O)cc3F)c3ccc(Cl)cc23)cc1` [Example 108, 2-chloro-4-(5-chloro-3-(4-methoxyphenyl)-1H-indazol-1-yl)-5-fluoro-N-(methylsulfonyl)benzamide]: the IC50 stood at 1480 nM.

Turning to `CS(=O)(=O)NC(=O)c1cc(F)c(-n2nc(-c3cccc(C#N)c3)c3cc(Cl)ccc32)cc1Cl` [Example 109, 2-chloro-4-(5-chloro-3-(3-cyanophenyl)-1H-indazol-1-yl)-5-fluoro-N-(methylsulfonyl)benzamide], the IC50 amounted to 450 nM.

Take `CS(=O)(=O)NC(=O)c1cc(F)c(-n2nc(-c3cccc(C(F)(F)F)c3)c3cc(Cl)ccc32)cc1Cl` [Example 110, 2-chloro-4-(5-chloro-3-(3-(trifluoromethyl)phenyl)-1H-indazol-1-yl)-5-fluoro-N-(methylsulfonyl)benzamide]: the IC50 amounted to 267 nM.

Turning to `CS(=O)(=O)NC(=O)c1cc(F)c(-n2nc(-c3ccc(C(F)(F)F)cc3)c3cc(Cl)ccc32)cc1Cl` [Example 111, 2-chloro-4-(5-chloro-3-(4-(trifluoromethyl)phenyl)-1H-indazol-1-yl)-5-fluoro-N-(methylsulfonyl)benzamide], the IC50 was 552 nM.

For `CS(=O)(=O)NC(=O)c1cc(F)c(-n2nc(-c3ccc(F)cc3)c3cc(Cl)ccc32)cc1Cl` [Example 112, 2-chloro-4-(5-chloro-3-(4-fluorophenyl)-1H-indazol-1-yl)-5-fluoro-N-(methylsulfonyl)benzamide], the IC50 is 789 nM.

For the compound `CS(=O)(=O)NC(=O)c1cc(F)c(-n2nc(-c3ccccc3F)c3cc(Cl)ccc32)cc1Cl` [Example 113, 2-chloro-4-(5-chloro-3-(2-fluorophenyl)-1H-indazol-1-yl)-5-fluoro-N-(methylsulfonyl)benzamide], the IC50 amounted to 752 nM.

Turning to `CS(=O)(=O)NC(=O)c1cc(F)c(-n2nc(-c3cccc(F)c3)c3cc(Cl)ccc32)cc1Cl` [Example 114, 2-chloro-4-(5-chloro-3-(3-fluorophenyl)-1H-indazol-1-yl)-5-fluoro-N-(methylsulfonyl)benzamide], the IC50 stood at 1440 nM.

Take `CS(=O)(=O)NC(=O)c1cc(F)c(-n2nc(-c3ccc(F)cc3F)c3cc(Cl)ccc32)cc1Cl` [Example 115, 2-chloro-4-(5-chloro-3-(2,4-difluorophenyl)-1H-indazol-1-yl)-5-fluoro-N-(methylsulfonyl)benzamide]: the IC50 stood at 727 nM.

Regarding `COc1ncccc1-c1nn(-c2cc(Cl)c(C(=O)NS(C)(=O)=O)cc2F)c2ccc(Cl)cc12` [Example 116, 2-chloro-4-(5-chloro-3-(2-methoxypyridin-3-yl)-1H-indazol-1-yl)-5-fluoro-N-(methylsulfonyl)benzamide], the IC50 was 3000 nM.

Consider `COc1ccccc1-c1nn(-c2ccc(C(=O)NS(C)(=O)=O)cc2F)c2ccc(Cl)cc12` [Example 117, 4-(5-chloro-3-(2-methoxyphenyl)-1H-indazol-1-yl)-3-fluoro-N-(methylsulfonyl)benzamide], for which the IC50 was found to be 640 nM.

Regarding `COc1ccc(-c2nn(-c3ccc(C(=O)NS(C)(=O)=O)cc3F)c3ccc(Cl)cc23)cc1` [Example 118, 4-(5-chloro-3-(4-methoxyphenyl)-1H-indazol-1-yl)-3-fluoro-N-(methylsulfonyl)benzamide], the IC50 amounted to 360 nM.

As to `CS(=O)(=O)NC(=O)c1ccc(-n2nc(-c3cccc(C#N)c3)c3cc(Cl)ccc32)c(F)c1` [Example 119, 4-(5-chloro-3-(3-cyanophenyl)-1H-indazol-1-yl)-3-fluoro-N-(methylsulfonyl)benzamide], the IC50 stood at 1790 nM.

As for `CS(=O)(=O)NC(=O)c1ccc(-n2nc(-c3ccc(C#N)cc3)c3cc(Cl)ccc32)c(F)c1` [Example 120, 4-(5-chloro-3-(4-cyanophenyl)-1H-indazol-1-yl)-3-fluoro-N-(methylsulfonyl)benzamide], the IC50 is 3890 nM.

Consider `CS(=O)(=O)NC(=O)c1ccc(-n2nc(-c3cccc(C(F)(F)F)c3)c3cc(Cl)ccc32)c(F)c1` [Example 121, 4-(5-chloro-3-(3-(trifluoromethyl)phenyl)-1H-indazol-1-yl)-3-fluoro-N-(methylsulfonyl)benzamide], for which the IC50 was determined as 1090 nM.

Turning to `CS(=O)(=O)NC(=O)c1ccc(-n2nc(-c3ccc(C(F)(F)F)cc3)c3cc(Cl)ccc32)c(F)c1` [Example 122, 4-(5-chloro-3-(4-(trifluoromethyl)phenyl)-1H-indazol-1-yl)-3-fluoro-N-(methylsulfonyl)benzamide], the IC50 is 310 nM.

Turning to `CS(=O)(=O)NC(=O)c1ccc(-n2nc(-c3ccc(F)cc3)c3cc(Cl)ccc32)c(F)c1` [Example 123, 4-(5-chloro-3-(4-fluorophenyl)-1H-indazol-1-yl)-3-fluoro-N-(methylsulfonyl)benzamide], the IC50 came to 350 nM.

Consider `CS(=O)(=O)NC(=O)c1ccc(-n2nc(-c3ccccc3F)c3cc(Cl)ccc32)c(F)c1` [Example 124, 4-(5-chloro-3-(2-fluorophenyl)-1H-indazol-1-yl)-3-fluoro-N-(methylsulfonyl)benzamide], for which the IC50 amounted to 290 nM.

For `CS(=O)(=O)NC(=O)c1ccc(-n2nc(-c3cccc(F)c3)c3cc(Cl)ccc32)c(F)c1` [Example 125, 4-(5-chloro-3-(3-fluorophenyl)-1H-indazol-1-yl)-3-fluoro-N-(methylsulfonyl)benzamide], the IC50 came out at 560 nM.

Turning to `CS(=O)(=O)NC(=O)c1ccc(-n2nc(-c3ccc(Cl)cc3)c3cc(Cl)ccc32)c(F)c1` [Example 126, 4-(5-chloro-3-(4-chlorophenyl)-1H-indazol-1-yl)-3-fluoro-N-(methylsulfonyl)benzamide], the IC50 turned out to be 990 nM.

Regarding `CS(=O)(=O)NC(=O)c1ccc(-n2nc(-c3ccccc3)c3cc(Cl)ccc32)cc1F` [Example 127, 4-(5-chloro-3-phenyl-1H-indazol-1-yl)-2-fluoro-N-(methylsulfonyl)benzamide], the IC50 is 3940 nM.

Turning to `CS(=O)(=O)NC(=O)c1ccc(-n2nc(-c3ccc(Cl)cc3F)c3cc(Cl)ccc32)nc1` [Example 128, 6-(5-chloro-3-(4-chloro-2-fluorophenyl)-1H-indazol-1-yl)-N-(methylsulfonyl)nicotinamide], the IC50 is 1330 nM.

For `CC(C)(O)C#Cc1nn(-c2cc(F)c(C(=O)NS(C)(=O)=O)cc2Cl)c2ccc(Cl)cc12` [Example 129, 5-chloro-4-(5-chloro-3-(3-hydroxy-3-methylbut-1-yn-1-yl)-1H-indazol-1-yl)-2-fluoro-N-(methylsulfonyl)benzamide], the IC50 came out at 1740 nM.

For `Cn1cc(-c2nn(-c3cc(F)c(C(=O)NS(C)(=O)=O)cc3Cl)c3ccc(Cl)cc23)ccc1=O` [Example 130, 5-chloro-4-(5-chloro-3-(1-methyl-6-oxo-1,6-dihydropyridin-3-yl)-1H-indazol-1-yl)-2-fluoro-N-(methylsulfonyl)benzamide], the IC50 was more than 10000 nM.

Take `CC(C)(C)OC(=O)N1CC=C(c2nn(-c3cc(F)c(C(=O)NS(C)(=O)=O)cc3Cl)c3ccc(Cl)cc23)CC1` [Example 131, tert-butyl 4-(5-chloro-1-(2-chloro-5-fluoro-4-((methylsulfonyl)carbamoyl)phenyl)-1H-indazol-3-yl)-3,6-dihydropyridine-1(2H)-carboxylate]: the IC50 stood at 2600 nM.

With `CS(=O)(=O)NC(=O)c1cc(Cl)c(-n2nc(C3=CCNCC3)c3cc(Cl)ccc32)cc1F` [Example 132, 5-chloro-4-(5-chloro-3-(1,2,3,6-tetrahydropyridin-4-yl)-1H-indazol-1-yl)-2-fluoro-N-(methylsulfonyl)benzamide], the IC50 is more than 10000 nM.

Consider `CS(=O)(=O)NC(=O)c1cc(Cl)c(-n2nc(/C=C/c3ccccc3)c3cc(Cl)ccc32)cc1F` [Example 133, (E)-5-chloro-4-(5-chloro-3-styryl-1H-indazol-1-yl)-2-fluoro-N-(methylsulfonyl)benzamide], for which the IC50 stood at 120 nM.

As for `CS(=O)(=O)NC(=O)c1cc(Cl)c(-n2nc(/C=C/c3ccccn3)c3cc(Cl)ccc32)cc1F` [Example 134, (E)-5-chloro-4-(5-chloro-3-(2-(pyridin-2-yl)vinyl)-1H-indazol-1-yl)-2-fluoro-N-(methylsulfonyl)benzamide], the IC50 stood at 2170 nM.

In the case of `CS(=O)(=O)NC(=O)c1cc(Cl)c(-n2nc(/C=C/c3ccccc3F)c3cc(Cl)ccc32)cc1F` [Example 135, (E)-5-chloro-4-(5-chloro-3-(2-fluorostyryl)-1H-indazol-1-yl)-2-fluoro-N-(methylsulfonyl)benzamide], the IC50 is 370 nM.

Turning to `CS(=O)(=O)NC(=O)c1cc(Cl)c(-n2nc(/C=C/c3ccccc3Cl)c3cc(Cl)ccc32)cc1F` [Example 136, (E)-5-chloro-4-(5-chloro-3-(2-chlorostyryl)-1H-indazol-1-yl)-2-fluoro-N-(methylsulfonyl)benzamide], the IC50 is 1010 nM.

For the compound `CS(=O)(=O)NC(=O)c1cc(Cl)c(-n2nc(/C=C/c3ccc(C(F)(F)F)cc3)c3cc(Cl)ccc32)cc1F` [Example 137, (E)-5-chloro-4-(5-chloro-3-(4-(trifluoromethyl)styryl)-1H-indazol-1-yl)-2-fluoro-N-(methylsulfonyl)benzamide], the IC50 turned out to be 680 nM.

Consider `CN(C)S(=O)(=O)NC(=O)c1cc(Cl)c(-n2nc(-c3ccc(Cl)cc3F)c3cc(Cl)ccc32)cc1F` [Example 138, 5-chloro-4-(5-chloro-3-(4-chloro-2-fluorophenyl)-1H-indazol-1-yl)-N—(N,N-dimethylsulfamoyl)-2-fluorobenzamide], for which the IC50 turned out to be 100 nM.

Take `CN(C(=O)c1cc(Cl)c(-n2nc(-c3ccc(Cl)cc3F)c3cc(Cl)ccc32)cc1F)S(C)(=O)=O` [Example 139, 5-chloro-4-(5-chloro-3-(4-chloro-2-fluorophenyl)-1H-indazol-1-yl)-2-fluoro-N-methyl-N-(methylsulfonyl)benzamide]: the IC50 is 1430 nM.

With `CS(=O)(=O)N(Cc1ccc2ccccc2c1)C(=O)c1cc(Cl)c(-n2nc(Cl)c3cc(O)ccc32)cc1F` [Example 140, 5-chloro-4-(3-chloro-5-hydroxy-1H-indazol-1-yl)-2-fluoro-N-(methylsulfonyl)-N-(naphthalen-2-ylmethyl)benzamide], the IC50 is more than 10000 nM.
